Key:
[1] = system: GIST; details: 345 patients, 400 mg/day, cited from earlier work
[2] = system: advanced GIST; details: cited from earlier work
[3] = target: c-Kit gain-of-function mutant V559D (exon 11) (Homo sapiens, UniProt P10721, V559D); details: in vitro; cited from earlier work

melting point [°C]	SMILES	other results
147 to 150	Cc1ccc(NC(=O)c2ccc(N(C)C)cc2)cc1Nc1nc(-c2cccnc2)cs1 [Compound 047, 4-Dimethylamino-N-[4-methyl-3-(4-pyridin-3-yl-thiazol-2-ylamino)-phenyl]-benzamide]	
103 to 106	Cc1ccc(F)c(C(=O)Nc2ccc(C)c(Nc3nc(-c4cccnc4)cs3)c2)c1 [Compound 048, 2-Fluoro-5-methyl-N-[4-methyl-3-(4-pyridin-3-yl-thiazol-2-ylamino)-phenyl]-benzamide]	
145 to 150	Cc1ccc(NC(=O)c2ccc(C(C)(C)C)cc2)cc1Nc1nc(-c2cccnc2)cs1 [Compound 049, 4-tert-Butyl-N-[4-methyl-3-(4-pyridin-3-yl-thiazol-2-ylamino)-phenyl]-benzamide]	
75 to 80	Cc1ccc(NC(=O)c2cccc(OCCN3CCOCC3)c2)cc1Nc1nc(-c2cccnc2)cs1 [Compound 052, N-[4-Methyl-3-(4-pyridin-3-yl-thiazol-2-ylamino)-phenyl]-3-(2-morpholin-4-yl-ethoxy)-benzamide]	
76 to 79	COc1cccc(C(=O)Nc2ccc(C)c(Nc3nc(-c4cccnc4)cs3)c2)c1 [Compound 059]	
197 to 198	Cc1ccc(NC(=O)c2cccc(N(C)C)c2)cc1Nc1nc(-c2cccnc2)cs1 [Compound 088, 3-Dimethylamino-N-[4-methyl-3-(4-pyridin-3-yl-thiazol-2-ylamino)-phenyl]-benzamide]	
247 to 248	Cc1ccc(NC(=O)c2cccc(N3CCOCC3)c2)cc1Nc1nc(-c2cccnc2)cs1 [Compound 090, N-[4-Methyl-3-(4-pyridin-3-yl-thiazol-2-ylamino)-phenyl]-3-morpholin-4-yl-benzamide]	
116 to 120	Cc1ccc(NC(=O)CCCN2CCOCC2)cc1Nc1nc(-c2cccnc2)cs1 [Compound 096, N-[4-Methyl-3-(4-pyridin-3-yl-thiazol-2-ylamino)-phenyl]-4-morpholin-4-yl-butyramide]	

Second part, the molecule before the results:

SMILES	melting point [°C]	other results
Cc1ccc(NC(=O)Nc2ccccc2F)cc1Nc1nc(-c2cccnc2)cs1 [Compound 023, 1-(2-Fluoro-phenyl)-3-[4-methyl-3-(4-pyridin-3-yl-thiazol-2-ylamino)-phenyl]-urea]	203 to 206	
Cc1ccc(NC(=O)Nc2cccc(F)c2)cc1Nc1nc(-c2cccnc2)cs1 [Compound 025, 1-(3-Fluoro-phenyl)-3-[4-methyl-3-(4-pyridin-3-yl-thiazol-2-ylamino)-phenyl]-urea]	210 to 215	
Cc1ccc(NC(=O)Nc2ccc(C)c(Nc3nc(-c4cccnc4)cs3)c2)cc1 [Compound 026, 1-[4-Methyl-3-(4-pyridin-3-yl-thiazol-2-ylamino)-phenyl]-3-p-tolyl-urea]	238 to 240	
Cc1ccc(NC(=O)c2ccc(NS(=O)(=O)c3cccs3)cc2)cc1Nc1nc(-c2cccnc2)cs1 [Compound 044, N-[4-Methyl-3-(4-pyridin-3-yl-thiazol-2-ylamino)-phenyl]-4-(thiophene-2-sulfonylamino)-benzamide]	230 to 233	
Cc1ccc(NC(=O)c2cccc(F)c2)cc1Nc1nc(-c2cccnc2)cs1 [Compound 045, 3-Fluoro-N-[4-methyl-3-(4-pyridin-3-yl-thiazol-2-ylamino)-phenyl]-benzamide]	184 to 186	
Cc1ccc(NC(=O)c2ccc(-c3ccncc3)cc2)cc1Nc1nc(-c2cccnc2)cs1 [Compound 046, N-[4-Methyl-3-(4-pyridin-3-yl-thiazol-2-ylamino)-phenyl]-4-pyridin-4-yl-benzamide]	254 to 256	
Cc1ccc(NC(=O)c2ccc(CN3CCN(C)CC3)cc2)cc1Nc1nccc(-c2cccnc2)n1 [imatinib]		median PFS ([1]; 95% CI [16-21]): 18 months; 2-year PFS rate ([1]; 95% CI [36-47]): 46%; Median overall survival (OS) ([1]; 95% CI [47-62]): 55 months; 2-year survival ([1]; 95% CI [67-77]): 72%; 3-year survival [1]: ~61%; 2-year survival rate of patients with advanced GIST ([2]; after introduction of imatinib (pre-imatinib 25%)): about 70%; early resistance (progression within the first 6 months, no response), patients ([2]; in vivo): 10-15%
CS(=O)(=O)O.CS(=O)(=O)O.Cc1ccc(NC(=O)c2ccc(CN3CCN(C)CC3)cc2)cc1Nc1nc(-c2cccnc2)cs1 [masitinib mesilate, 4-(4-methylpiperazin-1-ylmethyl)-N-[4-methyl-3-(4-pyridin-3ylthiazol-2-ylamino)phenyl]benzamide-mesylate methane sulfonic acid salt]		inhibition of c-Kit mutant V559D (exon 11) [3]: potently inhibits

Source: patent US20110201620A1, “2-(3-AMINOARYL) AMINO-4-ARYL-THIAZOLES AND THEIR USE AS C-KIT INHIBITORS” (AB SCIENCE, priority 2002, published 2011)
